Tested on: Human primary keratinocyte BKB10002 cells
Experiment: Senescence induction by surfactant, β-Gal staining
Assay type: cell-based
Conditions: 2 uM NP40 for 14 days, EpiLife medium+S7 supplement, medium change every second day
Experimental: Human primary keratinocyte BKB10002 cells were treated with the surfactant NP40 in order to induce senescence. Cells were grown in EpiLife medium+S7 supplement without (control) or with 2 uM NP40 for 14 days with a medium change every second day. […] Protein concentrations in the supernatants of the cell cultures were quantified using the Bio-Plex® Multiplex Immunoassays or ELISA kits from BIO-RAD.

With NP40 the “cells showing a positive β-Gal staining” value was 11%.

— patent US10869900B2, “Composition and products comprising senescent cells for use in tissue regeneration” (QRSkin GmbH, priority 2015, dated 2020)
